According to patent US10772827B2, “Composition for treating apoplexy through nasal administration” (INDUSTRY-UNIVERSITY COOPERATION FOUNDATION HANYANG …, priority 2015, dated 2020):
Where no end group is shown, it is not given here.

Assays:
[1] = rat, in vivo
Method: Intranasal administration of peptides was performed using a pressurized olfactory delivery (POD) device (Impel Neuropharma). Briefly, rats were kept in an isoflurane chamber containing 5% isoflurane for 3 minutes. After the animals were deeply anesthetized, the rats were placed in a supine position for drug injection. A POD tip (Impel Neuropharma) was carefully inserted into a nostril, and then a prefilled 25 μl catheter tube was slowly inserted appropriately 2 cm into the nostril. Thereafter, a peptide solution (PBS) (15 μl of PBS and 500 nM peptide) was slowly injected thereinto. A total of 700 μg of the FTP peptide was intranasally injected 12 hours after MCAO. After intranasal administration, the rats were maintained in the supine position for 5 minutes before they kept back to their designated cage.
A total of 500 μg of FTP was conjugated with Alexa-488 according to the manufacturer's guidelines (Molecular probes, Life Technologies). The Alexa^488 conjugated short peptide was intranasally injected with a final volume of 25 μl into each nostril using a POD device 12 hours after MCAO. After a predetermined period of time, the animals were sacrificed and tissues were excised therefrom. The tissues were washed with cold PBS and surface meninges were removed to avoid auto-fluorescence.

Fas [2] = target: T1, Fas (Mus musculus, UniProt P25446); assay: FTP binding to Fas-expressing hypoxic Neuro2a cells (flow cytometry, confocal microscopy); conditions: for binding to Fas-expressing hypoxic cells: hypoxic Neuro2a cells (OGD 24 h)
T1 construct: Neuro2a cells were cultured in an oxygen glucose deprivation (OGD) medium for 24 hour under hypoxic conditions to induce Fas expression; endogenous in cells; host or cells: Neuro2a (mouse neuroblastoma, ATCC), hypoxia/OGD-induced
T1 sequence (P25446 22-327): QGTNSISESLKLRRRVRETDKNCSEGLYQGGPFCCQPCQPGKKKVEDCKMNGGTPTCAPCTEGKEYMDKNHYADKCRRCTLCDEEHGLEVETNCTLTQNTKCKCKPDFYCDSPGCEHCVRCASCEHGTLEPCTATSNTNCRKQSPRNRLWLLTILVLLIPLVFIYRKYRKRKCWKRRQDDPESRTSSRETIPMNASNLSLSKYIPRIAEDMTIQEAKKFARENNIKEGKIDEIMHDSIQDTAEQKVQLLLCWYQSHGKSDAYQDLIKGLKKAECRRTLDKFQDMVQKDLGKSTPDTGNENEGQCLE
Method: (§1) Mouse neuroblastoma (Neuro2a, N2a) cells were obtained from ATCC and cultured in Dulbecco's Modified Eagle's Medium (DMEM) containing 10% fetal bovine serum (FBS), penicillin (100 IU/ml), and streptomycin (100 μg/ml). To duplicate an ischemia/reperfusion environment in vitro, the Neuro2a cells were cultured in a 6-well plate and maintained under a hypoxic condition (94% N2, 5% CO2, and 1% O2) in an oxygen glucose deprivation (OGD) medium (Life Technologies) for 24 hours. Subsequently, the cells were re-oxygenated in DMEM supplemented with 10% FBS (5% CO2, 20% O2, 37° C.) for 24 hours.
To identify co-localization of a FTP and a Fas receptor, Neuro2a cells were seeded on a cover slip and maintained under a hypoxic condition in an OGD medium for 24 hours. After incubating for 24 hours, the cells were treated with PBS containing 1% BSA and 0.05% Tween 20 and blocked at 37° C. for 2 hours, followed by staining with an anti-Fas antibody (Abcam) and an Alexa647-conjugated FTP at 4° C. for 2 hours. After incubating for 2 hours, the cells were washed three times with PBS containing 0.05% Tween 20, and stained with a secondary antibody (Abcam) at 4° C. for 2 hours under a dark condition. Nuclei of the cells were counterstained with Hoechst 33342 and fixed with an aqueous mounting solution (Abcam). Fluorescence signals in the cells were obtained using a TSP-SP5 confocal microscope (Leika, Germany).

Fas [3] = target: T1, Fas; assay: Competition assay of a Fas antibody and a FTP on hypoxic Neuro2a cells; type: binding; conditions: FIG. 1C
Method: FIG. 1C illustrates the results of a competition assay of a Fas antibody and a FTP, wherein the representative histograms show binding of a Fas antibody to hypoxic cells after treatment with a FTP; data is expressed as mean±SD of three replicated experiments; **P<0.01, ***P<0.001; Normoxia represents cells maintained under normal culture conditions, and Hypoxia represents cells cultured in an OGD medium for 24 hours, followed by re-oxygenation in a serum-containing DMEM medium for 24 hours; and FTP: Fas targeting peptide, Scr-FTP: scrambled peptide.

[4] = tested on: hypoxia-induced Neuro2a cells; assay: Inhibition of in vitro Fas-mediated apoptosis (PE Annexin V / 7-AAD flow cytometry); type: cell-based, mouse
Method: Mouse neuroblastoma (Neuro2a, N2a) cells were obtained from ATCC and cultured in Dulbecco's Modified Eagle's Medium (DMEM) containing 10% fetal bovine serum (FBS), penicillin (100 IU/ml), and streptomycin (100 μg/ml). To duplicate an ischemia/reperfusion environment in vitro, the Neuro2a cells were cultured in a 6-well plate and maintained under a hypoxic condition (94% N2, 5% CO2, and 1% O2) in an oxygen glucose deprivation (OGD) medium (Life Technologies) for 24 hours. Subsequently, the cells were re-oxygenated in DMEM supplemented with 10% FBS (5% CO2, 20% O2, 37° C.) for 24 hours. To examine an inhibitory effect of a FTP, hypoxia-induced Neuro2a cells were treated with 1,000 μM of a FTP. After incubating for 24 hours, the cells were stained using a PE Annexin V apoptosis detection kit (BD Pharmingen™) according to the manufacturer's instructions.

[5] = tested on: cleaved caspase-8 and caspase-3; assay: Western blotting of cleaved caspase-8 and caspase-3 in hypoxic Neuro2a cells; type: cell-based, mouse
Method: as §1
Neuro2a cells were lysed using a RIPA lysis buffer in the presence of […] phenylmethylsulfonyl fluoride (PMSF) as a protease inhibitor. A total of 50 μg of protein was loaded in a 12% SDS-PAGE gel and transferred onto a nitrocellulose transfer membrane (Whatman). Blots were blocked with 5% skim milk in TBST at room temperature for 2 hours and incubated at 4° C. with primary antibodies (Abcam). After a predetermined period of time, the blots were washed with TBST and incubated for 2 hours with secondary polyclonal antibodies coupled with HRP. After washing the blots three times with TBST, the blots were developed using an ECL western blotting substrate (Promega).

MCAO rats [6] = assay: TTC staining and measurement of infarct volume in MCAO rats; type: in vivo, rat; conditions: 15 mmol I.N. 12 hours after reperfusion
Method: (§2) Briefly, animals were anesthetized with 5% isoflurane. […] Thereafter, the CCA was completely occluded using a clip.
After a predetermined period of treatment, the brain was immediately removed. The expected area of damage in the brain was sliced into 3 slices (2 mm thick) including a brain matrix and then incubated in 2% 2,3,5-triphenyltetrazolium chloride (TTC, Sigma) at 37° C. for 10 minutes. The brain slices were then fixed in 4% paraformaldehyde and kept at 4° C. for 24 hours until imaging and photographing. The infarct volume was measured using Image J developed by the U.S. National Institute of Health (NIH) and calculated as commonly known.

MCAO rats [7] = assay: H&E histology of the brain of MCAO rats; type: in vivo, rat; conditions: FTP-inoculated group, day 1 to day 5 after reperfusion, FIG. 4F
Excerpt: as §2
Paraffin-embedded brain sections were de-paraffinized, rehydrated and then subjected to H&E staining according to standard protocols. The H&E stained sections were covered with cover slips and roughly analyzed using an optical microscope.

MCAO rats [8] = assay: TUNEL analysis of apoptosis in brain sections of MCAO rats; type: in vivo, rat; conditions: intranasal FTP, FIG. 4G
Method: as §2
A extent of apoptosis in de-paraffinized and rehydrated brain sections was analyzed through TUNEL analysis using an In Situ Cell Death Detection Kit (Roche, Germany) according to the manufacturer's instructions.

MCAO rats [9] = assay: Kaplan-Meier survival of MCAO rats; type: in vivo, rat; conditions: for animals survived: intranasal delivery; for rats that died over time: of the 18 rats per group, day 1 until day 5 after reperfusion, FIG. 4H
Method: as §2
The survival rate of each group of animals was evaluated using a previously described method^[3].

MCAO rats [10] = assay: Neurological evaluation (deficit grade 0-4) of MCAO rats; type: in vivo, rat
Method: as §2
The neurological deficits of each group of rats with or without peptide treatment were evaluated using a commonly known method^[2]. […] Next, the animals were placed on absorbent pads and tails thereof were pulled to examine their grips power. […] The rats were placed in a sufficiently wide space and allowed to move freely. Grade 3 was given for the case in which rats moved in a circle towards the paralyzed side when tails thereof were pulled. Grade 4 was given for the case in which rats spontaneously moved in a circle under a free environment.

[11] = target: T2, Fas on hypoxic mouse neuroblastoma Neuro2a cells (mouse, UniProt P25446 22-327); assay: flow cytometry, Alexa488-labeled peptide on hypoxic Neuro2a cells
T2 construct: whole, on cells; also called Fas receptor; Fas-expressing hypoxic cells
T2 sequence (looked up): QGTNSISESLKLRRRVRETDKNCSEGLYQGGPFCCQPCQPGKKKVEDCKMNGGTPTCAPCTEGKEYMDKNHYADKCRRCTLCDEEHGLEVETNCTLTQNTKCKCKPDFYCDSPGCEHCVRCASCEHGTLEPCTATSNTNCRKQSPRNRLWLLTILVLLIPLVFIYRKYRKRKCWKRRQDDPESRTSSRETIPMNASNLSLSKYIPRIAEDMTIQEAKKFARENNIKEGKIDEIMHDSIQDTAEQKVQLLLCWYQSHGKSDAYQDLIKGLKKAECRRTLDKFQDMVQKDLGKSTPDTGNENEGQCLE

[12] = fluorescence-labeled peptide, FIG. 1B
[13] = hypoxic Neuro2a cells, 1,000 μM FTP, FIG. 2B

FTP-A^488: FTP conjugated with Alexa-488 for bio-distribution (YCDEHFCY; cysteine pairing not given here; also: conjugated with Alexa-488, position not given here)
fluorescence signal in other organs [1]: no signal was found
fluorescence signal in the lungs [1]: slight fluorescence signal
localization of labeled peptide in the brain [1]: localization of labeled peptides occurred
retention of labeled peptide in the brain [1]: maintained in the brains of MCAO-treated rats

Scr-A^488: scrambled peptide labeled with Alexa^488 (YCNSTVCY; cysteine pairing not given here; also: labeled with Alexa-488, position not given here) [reference compound]
fluorescence exposure in the liver and kidneys, Scr-A^488 group versus FTP-A^488 group [1]: much more
fluorescence signal in other organs [1]: no signal was found
fluorescence signal in the lungs [1]: slight fluorescence signal
localization of labeled peptide in the brain [1]: strong localization
retention of labeled peptide in the brain [1]: not maintained

YCDEHFCY [FTP]
binding to Fas-expressing hypoxic cells (Fas [2]; [12]): only bound to the Fas-expressing hypoxic cells
binding to normal cells (Fas [2]; fluorescence-labeled peptide, normal (normoxic) Neuro2a cells, FIG. 1B): die not bind to normal cells
engagement to Fas-expressing cells, confocal microscopic images (Fas [2]; hypoxic Neuro2a cells, FIG. 2A): strongly engaged to the Fas-expressing cells
competitive assay between FTP and α-Fas antibody (Fas [3]): bound to different regions of a Fas molecule
decrease of annexin V positive cells [4, 13]: ~50%
decrease of annexin V/7-ADD positive cells [4, 13]: ~50%
decrease in 7-AAD positive cells ([4]; hypoxic Neuro2a cells, after FTP treatment): any significant decrease was not observed
decrease of cleaved caspase-3 ([5]; FIG. 2C): 40%
decrease of cleaved caspase-8 ([5]; FIG. 2C): ~50%
expression of activated cleaved caspase-8 and activated caspase-3 according to concentration ([5]; no dramatic change at full-length enzyme level, FIG. 3): decreased in a dose-dependent manner
size of the infarcted area compared to Mock (PBS)- or Scr-FTP-treatment (MCAO rats [6]; as early as day 1 after MCAO): significantly reduced the size of the infarcted area
infarct volume (MCAO rats [6]; day 1): 26%
infarct volume (MCAO rats [6]; day 2): 29%
infarct volume (MCAO rats [6]; day 3): 18%
infarct volume (MCAO rats [6]; day 5): 7%
recovery from the infarct (MCAO rats [6]; day 5 after reperfusion): almost completely recovered
interstitial edema and pyknotic nuclei (MCAO rats [7]): started to reduce on day 1 after reperfusion and were alleviated on day 5 thereafter
number of apoptotic cells (TUNEL positive cells) (MCAO rats [8]; day 1 after reperfusion): 26%
number of apoptotic cells (TUNEL positive cells) (MCAO rats [8]; day 5 after reperfusion): 9%
animals survived (MCAO rats [9]; first of three values printed for 1 to 5 days after reperfusion): 90%
animals survived (MCAO rats [9]; second of three values printed for 1 to 5 days after reperfusion): 80%
animals survived (MCAO rats [9]; third of three values printed for 1 to 5 days after reperfusion): 80%
rats that died over time (MCAO rats [9]): 2 rats
neurological deficits score compared to the saline-treated group (MCAO rats [10]; FIG. 4I): improved
neurological functions, average grade (MCAO rats [10]; grade 0-4, first of four values between day 1 and day 5 after reperfusion): 3.3
neurological functions, average grade (MCAO rats [10]; grade 0-4, fourth of four values between day 1 and day 5 after reperfusion): 1.3
neurological functions, average grade (MCAO rats [10]; grade 0-4, second of four values between day 1 and day 5 after reperfusion): 2.3
neurological functions, average grade (MCAO rats [10]; grade 0-4, third of four values between day 1 and day 5 after reperfusion): 2.3

YCNSTVCY [ScrFTP, scrambled peptide used as a control peptide, reference compound]
binding to Fas-expressing hypoxic cells (Fas [2]; [12]): did not bind to the hypoxic cells
decrease of cleaved caspase-8 ([5]; FIG. 2C): did not decrease cleaved caspase 8
rats that died over time (MCAO rats [9]): 11 rats
progressive effect on behavior after MCAO (MCAO rats [10]; between day 1 and day 5): worsened

B1: scrambled peptide (Scr-FTP) (peptide)
peptide: YCNSTVCY
modifications: cysteine pairing not given here; also: Alexa488 label in binding assays, site not given here
notes: also called scrambled-FTP; Scr-A488
binding result [11]: no binding
